The text below walks through data of ChEMBL document CHEMBL1135889, “Novel 4-anilinoquinazolines with C-7 basic side chains: design and structure activity relationship of a series of potent, orally active, VEGF receptor tyrosine kinase inhibitors” (J Med Chem, 2002).

In brackets after ≈: the same amount, converted by molar mass.

Data set [1] in a line: Bioavailability in rat after oral dose at 50 mg/kg free base. The data set is classed as ADME, organism-based. Particulars: in vivo.
A short description of data set [2]: Plasma levels following administration of 50 mg/Kg perorally and concentration of compound in plasma 24 hr after administration. The class given is ADME, cell-free. Particulars: po, read-out: Plasma level.
The nature of data set [3]: Pharmacokinetic parameters in dog, and clearance value reported after oral administration of 50 mg/Kg. Particulars: in vivo. The data set is classed as ADME, organism-based, Canis lupus familiaris.
Data set [4] can be described thus: Binding affinity of serum protein in mouse. The data set is classed as ADME, organism-based. Particulars: read-out: %Bound_Plasma (converted).
A short description of data set [5]: Binding affinity to serum protein in rat. The data set is classed as ADME, organism-based. Particulars: read-out: %Bound_Plasma (converted).
Data set [6] is described as follows: solubility was determined using free base at pH 7.4. The data set is classed as physicochemical. Particulars: buffer.
Data set [7] is described as follows: pKa value at a pH of […]. Particulars: pH 7.4. The data set is classed as physicochemical.
The target in data set [8] is Cyclin-dependent kinase 2 (Homo sapiens, UniProt P24941). Kind of data set: Inhibition of Cyclin-dependent kinase 2 (CDK2) at ATP concentration <Km.
The target in data set [9] is Receptor tyrosine-protein kinase erbB-2 (Homo sapiens, UniProt P04626). Put plainly: Inhibition of ERBB2 receptor kinase at ATP concentration <Km.
Chain of Receptor tyrosine-protein kinase erbB-2 (P04626 whole entry): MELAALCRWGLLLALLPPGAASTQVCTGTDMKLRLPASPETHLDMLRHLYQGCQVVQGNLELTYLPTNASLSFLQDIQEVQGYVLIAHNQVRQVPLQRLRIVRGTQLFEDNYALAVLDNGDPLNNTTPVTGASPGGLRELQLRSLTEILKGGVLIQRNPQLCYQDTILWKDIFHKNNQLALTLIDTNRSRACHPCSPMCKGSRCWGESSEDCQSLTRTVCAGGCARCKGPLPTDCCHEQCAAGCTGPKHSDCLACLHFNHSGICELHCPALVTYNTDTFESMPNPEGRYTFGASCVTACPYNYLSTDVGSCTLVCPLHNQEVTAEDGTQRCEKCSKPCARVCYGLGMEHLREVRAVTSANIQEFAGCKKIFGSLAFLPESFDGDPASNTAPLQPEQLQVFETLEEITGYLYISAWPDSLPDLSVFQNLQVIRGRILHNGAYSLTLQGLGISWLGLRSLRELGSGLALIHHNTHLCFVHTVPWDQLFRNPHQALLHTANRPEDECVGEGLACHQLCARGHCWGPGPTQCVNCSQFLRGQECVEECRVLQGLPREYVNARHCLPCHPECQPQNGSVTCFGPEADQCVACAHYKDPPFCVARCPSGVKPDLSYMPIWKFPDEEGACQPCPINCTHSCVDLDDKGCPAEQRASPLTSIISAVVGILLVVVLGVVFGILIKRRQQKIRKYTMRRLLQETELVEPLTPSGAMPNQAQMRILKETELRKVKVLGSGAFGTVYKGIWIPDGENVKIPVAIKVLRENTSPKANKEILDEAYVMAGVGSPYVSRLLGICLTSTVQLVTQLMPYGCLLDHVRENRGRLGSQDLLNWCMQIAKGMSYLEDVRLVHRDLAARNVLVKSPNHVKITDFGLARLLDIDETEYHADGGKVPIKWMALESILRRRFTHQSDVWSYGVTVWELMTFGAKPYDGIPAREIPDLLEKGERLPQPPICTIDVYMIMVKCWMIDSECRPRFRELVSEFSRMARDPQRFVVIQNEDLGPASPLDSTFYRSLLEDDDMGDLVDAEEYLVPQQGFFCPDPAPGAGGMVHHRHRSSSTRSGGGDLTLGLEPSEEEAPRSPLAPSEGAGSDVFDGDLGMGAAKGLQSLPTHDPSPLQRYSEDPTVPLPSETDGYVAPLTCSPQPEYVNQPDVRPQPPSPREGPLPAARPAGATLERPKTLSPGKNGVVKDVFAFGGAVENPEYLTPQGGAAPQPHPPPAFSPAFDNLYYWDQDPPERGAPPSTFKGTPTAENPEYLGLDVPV
Data set [10] addresses Insulin-like growth factor 1 receptor (Homo sapiens, UniProt P08069). Kind of data set: Inhibition of Insulin-like growth factor I receptor at ATP <Km.
Data set [11] has as its target Dual specificity mitogen-activated protein kinase kinase; MEK1/2 (Homo sapiens, UniProt P36507+Q02750). Kind of data set: Inhibition of Mitogen activated protein kinase (MEK) at ATP <Km. The data set is classed as protein assay.
Data set [12] concerns the target Serine/threonine-protein kinase AKT (Homo sapiens, UniProt P31751+Q9Y243+P31749). Kind of data set: Inhibition of Protein kinase B (AKT) at ATP <Km. The data set is classed as protein assay.
Data set [13] deals with T1, 3-phosphoinositide-dependent protein kinase 1 (Homo sapiens, UniProt O15530).
T1 sequence (O15530 whole entry): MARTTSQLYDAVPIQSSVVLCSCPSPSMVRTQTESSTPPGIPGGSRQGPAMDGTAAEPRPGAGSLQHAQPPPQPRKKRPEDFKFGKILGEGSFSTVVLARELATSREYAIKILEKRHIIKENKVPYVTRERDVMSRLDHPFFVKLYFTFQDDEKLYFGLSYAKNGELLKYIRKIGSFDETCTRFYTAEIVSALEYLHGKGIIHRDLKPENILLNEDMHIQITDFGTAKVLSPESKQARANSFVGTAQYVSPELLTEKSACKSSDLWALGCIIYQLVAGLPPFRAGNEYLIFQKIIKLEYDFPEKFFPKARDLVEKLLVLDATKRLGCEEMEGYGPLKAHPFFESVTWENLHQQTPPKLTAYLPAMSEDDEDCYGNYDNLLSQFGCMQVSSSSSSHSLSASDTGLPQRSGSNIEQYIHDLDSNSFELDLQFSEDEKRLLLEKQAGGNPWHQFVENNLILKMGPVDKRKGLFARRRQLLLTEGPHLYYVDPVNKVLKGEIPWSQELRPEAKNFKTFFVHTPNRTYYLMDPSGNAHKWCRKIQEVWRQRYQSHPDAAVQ
Kind of data set: Inhibition of receptor kinase activity against PDK (phospho-inositide dependent kinase) at ATP <Km.

Another data set concerns the target Angiopoietin-1 receptor (Homo sapiens, UniProt Q02763). Kind of data set: Inhibition of Tyrosine protein kinase TIE-2 at ATP <Km.
Data set [14] in a line: Plasma levels following administration of 50 mg/Kg perorally and concentration in plasma 6 hr after administration. Particulars: po, read-out: Plasma level. The data set is classed as ADME, cell-free.
Data set [15] is described as follows: physchem. Particulars: octanol/water, pH 7.4.
Data set [16] in a line: Pharmacokinetic parameter bioavailability in dog was reported after oral administration of 30 mg/Kg measured on free base. Particulars: in vivo.
Data set [17] can be described thus: Pharmacokinetic parameter half-life in dog was reported after intravenous administration of 5 mg/Kg measured on free base. Particulars: in vivo.
Data set [18] can be described thus: Pharmacokinetic parameter half-life in rat was reported after intravenous administration of 5 mg/Kg measured on free base. Particulars: in vivo.
Data set [19] is described as follows: Pharmacokinetic parameter bioavailability in rat was reported after oral administration of 50 mg/Kg measured on free base. The class given is ADME, organism-based. Particulars: in vivo.
A short description of data set [20]: pKa value at a pH of […].value ranges from […]-[…]. The data set is classed as physicochemical. Particulars: pH 7.4.
For the next data set, the system named is HUVEC. Put plainly: Inhibition of basal unstimulated growth of human endothelial cell. The data set is classed as functional, cell-based.
Data set [21] deals with Mus musculus. Kind of data set: Inhibition of Established Calu-6 tumor xenografts implanted subcutaneously in athymic mice measured after 21 days of dosing of […] mg/kg perorally. The data set is classed as functional. Particulars: Calu-6, 504 h, route oral.
Data set [22] relates to Mus musculus. Kind of data set: Inhibition of Established Calu-6 tumor xenografts implanted subcutaneously in athymic mice measured after 21 days of dosing of 50 mg/kg perorally. The data set is classed as functional. Particulars: Calu-6, 504 h, route oral.
The subject of data set [23] is Mus musculus. Put plainly: Inhibition of Established Calu-6 tumor xenografts implanted subcutaneously in athymic mice measured after 21 days of dosing of 12.5 mg/kg perorally. The data set is classed as functional. Particulars: Calu-6, 504 h, route oral.
Data set [24] deals with Mus musculus. Put plainly: Inhibition of Calu-6 tumor xenografts implanted subcutaneously in athymic mice measured after 21 days of dosing of 100 mg/kg perorally. The class given is functional. Particulars: Calu-6, 504 h, route oral.
Data set [25] is described as follows: Pharmacokinetic parameter half-life in dog was reported after intravenous administration of 5 mg/Kg measured on free base. Particulars: in vivo. This is another data set of the same source.
Data set [26] can be described thus: Pharmacokinetic parameter bioavailability in dog was reported after oral administration of 25 mg/Kg measured on free base. Particulars: in vivo.
A short description of data set [27]: Plasma levels following administration of 100 mg/Kg perorally and concentration in plasma 24 hr after administration. The data set is classed as ADME, cell-free. Particulars: po, read-out: Plasma level.
Data set [28] can be described thus: Plasma levels following administration of 100 mg/Kg perorally and concentration in plasma 6 hr after administration. The data set is classed as ADME, cell-free. Particulars: po, read-out: Plasma level.
A short description of data set [29]: solubility was determined using free base at pH 7. Particulars: buffer. The data set is classed as physicochemical.
Data set [30] in a line: physchem. Particulars: pH 7.4.

Chain of Insulin-like growth factor 1 receptor (P08069 31-736 limits assumed): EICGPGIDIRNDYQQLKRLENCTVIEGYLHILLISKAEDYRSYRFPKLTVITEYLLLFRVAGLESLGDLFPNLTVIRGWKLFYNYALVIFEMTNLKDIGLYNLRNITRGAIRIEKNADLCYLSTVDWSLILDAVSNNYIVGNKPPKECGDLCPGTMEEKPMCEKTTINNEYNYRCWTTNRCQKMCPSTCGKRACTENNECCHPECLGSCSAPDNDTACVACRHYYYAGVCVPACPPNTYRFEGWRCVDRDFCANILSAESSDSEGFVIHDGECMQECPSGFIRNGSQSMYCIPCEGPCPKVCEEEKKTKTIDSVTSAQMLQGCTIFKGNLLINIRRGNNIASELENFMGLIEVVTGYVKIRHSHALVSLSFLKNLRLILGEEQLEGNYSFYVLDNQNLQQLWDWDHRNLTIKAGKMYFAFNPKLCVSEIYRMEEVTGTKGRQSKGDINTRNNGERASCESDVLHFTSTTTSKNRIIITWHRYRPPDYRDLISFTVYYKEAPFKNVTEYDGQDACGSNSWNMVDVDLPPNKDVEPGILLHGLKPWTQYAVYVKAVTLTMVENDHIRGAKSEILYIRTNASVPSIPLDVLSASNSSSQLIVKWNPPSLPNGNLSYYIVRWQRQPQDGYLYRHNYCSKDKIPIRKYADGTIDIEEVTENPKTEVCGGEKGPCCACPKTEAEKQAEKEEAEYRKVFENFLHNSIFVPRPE
Chain of Insulin-like growth factor 1 receptor (P08069 741-1367 limits assumed): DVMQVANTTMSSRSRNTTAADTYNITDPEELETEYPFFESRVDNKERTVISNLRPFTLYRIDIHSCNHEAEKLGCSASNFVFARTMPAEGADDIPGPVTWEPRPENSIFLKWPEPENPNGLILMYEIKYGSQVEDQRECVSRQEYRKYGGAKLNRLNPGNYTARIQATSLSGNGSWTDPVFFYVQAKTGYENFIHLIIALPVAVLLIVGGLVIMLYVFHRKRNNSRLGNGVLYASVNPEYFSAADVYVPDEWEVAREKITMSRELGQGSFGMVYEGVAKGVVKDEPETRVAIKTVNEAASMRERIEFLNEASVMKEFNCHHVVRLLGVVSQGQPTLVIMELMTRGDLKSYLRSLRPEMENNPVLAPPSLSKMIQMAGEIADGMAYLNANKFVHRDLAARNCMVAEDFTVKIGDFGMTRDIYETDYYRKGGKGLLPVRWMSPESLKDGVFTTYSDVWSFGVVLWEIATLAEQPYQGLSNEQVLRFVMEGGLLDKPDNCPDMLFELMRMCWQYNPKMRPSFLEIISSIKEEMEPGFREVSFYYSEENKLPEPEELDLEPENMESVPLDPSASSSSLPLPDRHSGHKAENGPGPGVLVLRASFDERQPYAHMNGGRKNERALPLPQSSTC
Chain of Angiopoietin-1 receptor (Q02763 whole entry): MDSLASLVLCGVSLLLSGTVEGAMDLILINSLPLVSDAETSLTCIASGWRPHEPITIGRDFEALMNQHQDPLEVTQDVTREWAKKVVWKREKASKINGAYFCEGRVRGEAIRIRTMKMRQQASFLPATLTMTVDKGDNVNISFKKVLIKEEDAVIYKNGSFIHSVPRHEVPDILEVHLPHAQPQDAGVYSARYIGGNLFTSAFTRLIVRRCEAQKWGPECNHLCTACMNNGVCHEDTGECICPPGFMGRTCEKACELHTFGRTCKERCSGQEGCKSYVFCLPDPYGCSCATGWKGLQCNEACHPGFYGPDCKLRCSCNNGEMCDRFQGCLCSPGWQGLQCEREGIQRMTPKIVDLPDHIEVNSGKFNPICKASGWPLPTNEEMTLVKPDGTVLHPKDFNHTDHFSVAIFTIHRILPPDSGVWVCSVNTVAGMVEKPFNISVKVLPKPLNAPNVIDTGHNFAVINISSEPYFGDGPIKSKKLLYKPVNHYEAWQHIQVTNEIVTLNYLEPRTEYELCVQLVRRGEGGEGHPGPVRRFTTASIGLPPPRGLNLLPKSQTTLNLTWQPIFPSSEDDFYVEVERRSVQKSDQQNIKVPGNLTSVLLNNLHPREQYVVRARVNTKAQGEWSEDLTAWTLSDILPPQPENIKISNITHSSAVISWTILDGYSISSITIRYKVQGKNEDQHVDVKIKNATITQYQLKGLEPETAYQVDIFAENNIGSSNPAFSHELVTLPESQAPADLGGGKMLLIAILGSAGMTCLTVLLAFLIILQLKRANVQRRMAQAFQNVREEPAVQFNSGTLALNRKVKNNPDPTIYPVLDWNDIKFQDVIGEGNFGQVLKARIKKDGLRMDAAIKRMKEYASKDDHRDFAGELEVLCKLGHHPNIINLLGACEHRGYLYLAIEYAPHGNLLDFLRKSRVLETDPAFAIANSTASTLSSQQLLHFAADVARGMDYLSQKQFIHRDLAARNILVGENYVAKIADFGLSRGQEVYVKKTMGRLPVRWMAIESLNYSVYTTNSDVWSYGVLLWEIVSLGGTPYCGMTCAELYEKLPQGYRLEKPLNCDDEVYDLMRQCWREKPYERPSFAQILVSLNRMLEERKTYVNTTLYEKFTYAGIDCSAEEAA

The term bioavailability denotes dose-corrected exposure relative to a reference, in per cent. A high value points to much systemic uptake. The CL/F is the apparent clearance, not corrected for the fraction that reaches the circulation. By solubility is commonly meant the dissolved amount per volume that the medium holds. Higher therefore signals a readily soluble substance. In general, pKa refers to the pH at which an ionisable group is half protonated. As a reminder, the IC50 is the midpoint of a concentration-inhibition curve. For orientation: logD means lipophilicity at a set pH, counting ionised and neutral species. Higher therefore signals a more lipophilic compound. As a reminder, the half-life is the time needed for the level to fall by half in the phase considered. A higher half-life goes with slow decline. As to `COc1cc2c(Nc3ccc(Br)cc3F)ncnc2cc1OCCn1ccnn1` [ZD-4190 FREE BASE], the bioavailability in data set [1] was above 80%; in data set [16], below 5%. Also, in [2], the concentration at 24 h is 0.2 µM. This compound also had a CL/F in data set [3] of 8.33 mL/min/kg. Further, the figures for the fraction unbound in [4] and in data set [5] were 0.02 and 0.05, respectively. Moreover, in data set [6], the concentration in solution (solubility) came to 0.7 µM (≈ 0.321 µg/mL). In [7], this compound yielded a pKa of 5.3. Also, the IC50 was above 10 µM in data set [8]; above 100 µM in data set [9]; above 20 µM in data set [10]; above 10 µM in [11]; above 20 µM in data set [12]; above 20 µM in [13]. Besides, on Angiopoietin-1 receptor, the IC50 is above 100 µM. Besides, in [14], the concentration at 6 h worked out at 14 µM. Further, the logD in “physchem [15]” was found to be 4.6. The half-life in [17] is 1.1 h; in data set [18], 1.3 h.
The term inhibition in vivo denotes how much of the control response was suppressed. Lower therefore signals little suppression. `COc1cc2c(Nc3ccc(Br)cc3F)ncnc2cc1OCC1CCN(C)CC1.Cl`: the bioavailability in [19] and in [26] was above 50% each time. The concentration at 24 h in data set [2] came out at 3 µM. In [6], the concentration in solution (solubility) came to 330 µM. This compound gave a pKa in [20] of 9.4. Moreover, in the data set with HUVEC, the IC50 was above 3 µM. This compound came in with an inhibition in vivo at 25 mg/kg in the data set with Mus musculus [21] of 51%. In the data set on Mus musculus [22], this compound displayed an inhibition in vivo at 50 mg/kg of 67%. In addition, 12.5 mg/kg produced 36% inhibition in vivo with Mus musculus [23]. Further, the concentration at 6 h in data set [14] came out at 5.5 µM. In the data set with Mus musculus [24], this compound yielded an inhibition in vivo at 100 mg/kg of 79%. In “physchem [15]”, this compound registered a log distribution coefficient (logD) of 2.6. Also, the half-life in [25] was 8.3 h; in data set [18], 15 h.
Turning to `COc1cc2c(Nc3ccc(Cl)cc3F)ncnc2cc1OCCCN1CCOCC1`, the concentration at 24 h in data set [27] stood at 0.8 µM. The concentration at 6 h in data set [28] stood at 4 µM. In data set [29], this compound showed a solubility of 20 µM (≈ 8.94 µg/mL). The compound further came in with an IC50 in the data set with HUVEC of 2 µM. The same compound came in with a logD in “physchem [15]” of 3.4. The pKa in the data set “physchem [30]” amounted to 7.2.
